Values after ≈ are worked out from the molar mass of the structure shown.
Key:
Escherichia coli [1] = test: Inhibition of growth of Escherichia coli (CN314) measured as MIC compound/MIC Trimethoprim; format: functional
Klebsiella aerogenes [2] = test: Inhibition of growth of Enterobacter aerogenes (2200/186) measured as MIC(compound/MIC Trimethoprim; format: functional
Klebsiella pneumoniae [3] = test: Inhibition of growth of Klebsiella pneumoniae (CN3632) measured as MIC compound/MIC Trimethoprim; format: functional
Proteus vulgaris [4] = test: Inhibition of growth of Proteus vulgaris (CN329) measured as MIC compound/MIC Trimethoprim; format: functional
Staphylococcus aureus [5] = test: Inhibition of growth of Staphylococcus aureus (CN491) measured as MIC compound/MIC Trimethoprim; format: functional
Neisseria gonorrhoeae = test: Inhibition of growth of Neisseria gonorrhoeae; format: functional
Shigella flexneri [6] = test: Inhibition of growth of Shigella flexneri (CN6007) measured as MIC compound/MIC Trimethoprim; format: functional
Vibrio cholerae [7] = test: Inhibition of growth of Vibrio cholera (ATCC 14035) measured as MIC compound/MIC Trimethoprim; format: functional
Dihydrofolate reductase = biological target: T1, Dihydrofolate reductase (Rattus norvegicus, UniProt Q920D2); test: Inhibition of Rat liver Dihydrofolate reductase(DHFR); details: read-out: I50
T1 sequence (Q920D2 whole entry): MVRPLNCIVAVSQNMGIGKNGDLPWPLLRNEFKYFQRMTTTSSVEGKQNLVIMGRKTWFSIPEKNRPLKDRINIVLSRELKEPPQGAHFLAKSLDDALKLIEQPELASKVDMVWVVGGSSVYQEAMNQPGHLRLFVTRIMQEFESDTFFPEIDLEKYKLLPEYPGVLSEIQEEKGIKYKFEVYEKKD

Escherichia coli [8] = test: Inhibition of growth of Escherichia coli (CN314) was measured
Klebsiella pneumoniae [9] = test: Inhibition of growth of Klebsiella pneumoniae (CN3632) was measured
[10] = system: Mycolicibacterium smegmatis; test: Inhibition of growth of Mycobacterium smegmatis (S3254) was measured
Proteus vulgaris [11] = test: Inhibition of growth of Proteus vulgaris (CN329) was measured
Serratia marcescens = test: Inhibition of growth of Serratia marcescens (CN2398) was measured
Shigella flexneri [12] = test: Inhibition of growth of Shigella flexneri (CN6007) was measured
Staphylococcus aureus [13] = test: Inhibition of growth of Staphylococcus aureus (CN491) was measured
Klebsiella aerogenes [14] = test: microbe, parasite or virus in culture
Description: Inhibition of growth of Enterobacter aerogenes (2200/186) was measured

Vibrio cholerae [15] = test: microbe, parasite or virus in culture; details: ATCC 14035
Description: Inhibition of growth of Vibrio cholera (ATCC 14035) was measured

Question: How did the MIC ratio (Escherichia coli [1]) turn out when `COc1c(C(C)C)cc(Cc2cnc(N)nc2N)cc1C(C)C` was run?
Answer: 3000

Question: What about the MIC ratio (Klebsiella aerogenes [2]) of the same compound?
Answer: > 1000

Question: And the MIC ratio (Klebsiella pneumoniae [3])?
Answer: > 1000

Question: What about the MIC ratio (Proteus vulgaris [4]) of the same compound?
Answer: > 1000

Question: And the MIC ratio (Staphylococcus aureus [5])?
Answer: 30

Question: Which MIC ratio (Escherichia coli [1]) does the source give for `CCc1cc(Cc2cnc(N)nc2N)cc(C)c1OC` here?
Answer: 30

Question: And the MIC ratio (Klebsiella aerogenes [2])?
Answer: 30

Question: What about the MIC ratio (Klebsiella pneumoniae [3]) of the same compound?
Answer: 30

Question: And the MIC (Neisseria gonorrhoeae)?
Answer: 140 µM (≈ 38.1 µg/mL)

Question: What about the MIC ratio (Proteus vulgaris [4]) of the same compound?
Answer: 3

Question: And the MIC ratio (Shigella flexneri [6])?
Answer: 30

Question: And the MIC ratio (Staphylococcus aureus [5])?
Answer: 3

Question: Which results are given for `COc1c(C)cc(Cc2cnc(N)nc2N)cc1C(C)(C)C`?
Answer: MIC ratio (Escherichia coli [1]): 100; MIC ratio (Klebsiella aerogenes [2]): 300; MIC ratio (Klebsiella pneumoniae [3]): > 100; MIC ratio (Proteus vulgaris [4]): > 30; MIC ratio (Shigella flexneri [6]): 300; MIC ratio (Staphylococcus aureus [5]): 10; MIC (Vibrio cholerae [7]): 10 µg/mL (≈ 33.3 µM)

Question: What does the source list for `CCCc1cc(Cc2cnc(N)nc2N)cc(CCC)c1O`?
Answer: MIC ratio (Escherichia coli [1]): 10; MIC ratio (Klebsiella aerogenes [2]): 30; MIC ratio (Klebsiella pneumoniae [3]): 30; MIC ratio (Proteus vulgaris [4]): 30; MIC ratio (Shigella flexneri [6]): 10; MIC ratio (Staphylococcus aureus [5]): 0.3; MIC (Vibrio cholerae [7]): 1 µg/mL (≈ 3.33 µM)

Question: What does the source list for `CCc1cc(Cc2cnc(N)nc2N)cc(CC)c1OC`?
Answer: MIC ratio (Escherichia coli [1]): 3; MIC ratio (Klebsiella aerogenes [2]): 10; MIC ratio (Klebsiella pneumoniae [3]): 10; MIC ratio (Proteus vulgaris [4]): 30; MIC ratio (Shigella flexneri [6]): 3; MIC ratio (Staphylococcus aureus [5]): 0.3

Question: `C=CCc1cc(Cc2cnc(N)nc2N)cc(OC)c1OC` was tested. Which MIC (Neisseria gonorrhoeae) did it give?
Answer: 110 µM (≈ 33 µg/mL)

Question: What does the source list for `CCCc1cc(Cc2cnc(N)nc2N)cc(CC)c1OC`?
Answer: IC50 (Dihydrofolate reductase): 30 µM; MIC ratio (Escherichia coli [1]): 30; MIC ratio (Klebsiella aerogenes [2]): 100; MIC ratio (Klebsiella pneumoniae [3]): 30; MIC (Neisseria gonorrhoeae): 17.5 µM (≈ 5.26 µg/mL); MIC ratio (Proteus vulgaris [4]): 30; MIC ratio (Shigella flexneri [6]): 30; MIC ratio (Staphylococcus aureus [5]): 0.3; MIC (Vibrio cholerae [7]): 10 µg/mL (≈ 33.3 µM)

Question: With `CCc1cc(Cc2cnc(N)nc2N)cc(C)c1O` as the compound, how does the MIC ratio (Escherichia coli [1]) read?
Answer: 3

Question: What about the MIC ratio (Klebsiella aerogenes [2]) of the same compound?
Answer: 3

Question: And the MIC ratio (Klebsiella pneumoniae [3])?
Answer: 3

Question: And the MIC ratio (Shigella flexneri [6])?
Answer: 3

Question: And the MIC ratio (Staphylococcus aureus [5])?
Answer: 1

Question: For `CCCc1cc(Cc2cnc(N)nc2N)cc(CC)c1O`, which MIC ratio (Escherichia coli [1]) is on record?
Answer: 10

Question: And the MIC ratio (Klebsiella aerogenes [2])?
Answer: 10

Question: And the MIC ratio (Klebsiella pneumoniae [3])?
Answer: 3

Question: What about the MIC (Neisseria gonorrhoeae) of the same compound?
Answer: 9 µM (≈ 2.58 µg/mL)

Question: What about the MIC ratio (Proteus vulgaris [4]) of the same compound?
Answer: 3

Question: What about the MIC ratio (Shigella flexneri [6]) of the same compound?
Answer: 3

Question: What about the MIC ratio (Staphylococcus aureus [5]) of the same compound?
Answer: 0.3

Question: What about the MIC (Vibrio cholerae [7]) of the same compound?
Answer: 1 µg/mL (≈ 3.49 µM)

Question: `CCCc1cc(Cc2cnc(N)nc2N)cc(OC)c1OC` was tested. Which MIC (Neisseria gonorrhoeae) did it give?
Answer: 54 µM (≈ 16.3 µg/mL)

Question: For `Cc1cc(Cc2cnc(N)nc2N)cc(C)c1O`, which MIC ratio (Escherichia coli [1]) is on record?
Answer: 10

Question: What about the MIC ratio (Klebsiella aerogenes [2]) of the same compound?
Answer: 1

Question: What about the MIC ratio (Klebsiella pneumoniae [3]) of the same compound?
Answer: 3

Question: What about the MIC ratio (Proteus vulgaris [4]) of the same compound?
Answer: 3

Question: And the MIC ratio (Staphylococcus aureus [5])?
Answer: 10

Question: How did the MIC ratio (Escherichia coli [1]) turn out when `Cc1cc(Cc2cnc(N)nc2N)cc(C(C)(C)C)c1O` was run?
Answer: 100

Question: And the MIC ratio (Klebsiella aerogenes [2])?
Answer: 100

Question: And the MIC ratio (Klebsiella pneumoniae [3])?
Answer: 100

Question: What about the MIC ratio (Proteus vulgaris [4]) of the same compound?
Answer: 100

Question: What about the MIC ratio (Shigella flexneri [6]) of the same compound?
Answer: 30

Question: What about the MIC ratio (Staphylococcus aureus [5]) of the same compound?
Answer: 3

Question: What does the source list for `COc1c(C(C)(C)C)cc(Cc2cnc(N)nc2N)cc1C(C)(C)C`?
Answer: MIC ratio (Escherichia coli [1]): 10000; MIC ratio (Klebsiella aerogenes [2]): > 1000; MIC ratio (Klebsiella pneumoniae [3]): > 1000; MIC (Neisseria gonorrhoeae): 13 µM (≈ 4.45 µg/mL); MIC ratio (Proteus vulgaris [4]): > 1000; MIC ratio (Staphylococcus aureus [5]): 30

Question: Which results are given for `CCCc1cc(Cc2cnc(N)nc2N)cc(CCC)c1OC`?
Answer: MIC ratio (Escherichia coli [1]): 30; MIC ratio (Klebsiella aerogenes [2]): 100; MIC ratio (Klebsiella pneumoniae [3]): 30; MIC ratio (Proteus vulgaris [4]): 30; MIC ratio (Shigella flexneri [6]): 100; MIC ratio (Staphylococcus aureus [5]): 1; MIC (Vibrio cholerae [7]): 10 µg/mL (≈ 31.8 µM)

Question: For `CCc1cc(Cc2cnc(N)nc2N)cc(CC)c1O`, which MIC ratio (Escherichia coli [1]) is on record?
Answer: 3

Question: And the MIC ratio (Klebsiella aerogenes [2])?
Answer: 10

Question: What about the MIC ratio (Klebsiella pneumoniae [3]) of the same compound?
Answer: 10

Question: What about the MIC ratio (Proteus vulgaris [4]) of the same compound?
Answer: 10

Question: And the MIC ratio (Shigella flexneri [6])?
Answer: 10

Question: What about the MIC ratio (Staphylococcus aureus [5]) of the same compound?
Answer: 3

Question: And the MIC (Vibrio cholerae [7])?
Answer: 1 µg/mL (≈ 3.67 µM)

Question: With `C/C=C/c1cc(Cc2cnc(N)nc2N)cc(OC)c1OC` as the compound, how does the MIC (Neisseria gonorrhoeae) read?
Answer: 110 µM (≈ 33 µg/mL)

Question: For `COc1c(C)cc(Cc2cnc(N)nc2N)cc1C`, which MIC ratio (Escherichia coli [1]) is on record?
Answer: 1000

Question: And the MIC ratio (Klebsiella aerogenes [2])?
Answer: 1000

Question: What about the MIC ratio (Klebsiella pneumoniae [3]) of the same compound?
Answer: 300

Question: What about the MIC (Neisseria gonorrhoeae) of the same compound?
Answer: 200 µM (≈ 51.7 µg/mL)

Question: And the MIC ratio (Proteus vulgaris [4])?
Answer: 300

Question: And the MIC ratio (Staphylococcus aureus [5])?
Answer: 100

Question: Which IC50 (Dihydrofolate reductase) does the source give for `C=CCc1cc(Cc2cnc(N)nc2N)cc(CCC)c1O` here?
Answer: 3.63 µM

Question: With `CCOc1cc(Cc2cnc(N)nc2N)cc(OC)c1OC` as the compound, how does the MIC (Neisseria gonorrhoeae) read?
Answer: 180 µM (≈ 54.8 µg/mL)

Question: How did the MIC (Escherichia coli [8]) turn out when `COc1cc(Cc2cnc(N)nc2N)cc(OC)c1OC` [TRIMETHOPRIM] was run?
Answer: 1 µg/mL (≈ 3.44 µM)

Question: And the MIC (Klebsiella pneumoniae [9])?
Answer: 1 µg/mL (≈ 3.44 µM)

Question: And the MIC [10]?
Answer: 1 µg/mL (≈ 3.44 µM)

Question: And the MIC (Neisseria gonorrhoeae)?
Answer: 240 µM (≈ 69.7 µg/mL)

Question: And the MIC (Proteus vulgaris [11])?
Answer: 1 µg/mL (≈ 3.44 µM)

Question: And the MIC (Serratia marcescens)?
Answer: 1 µg/mL (≈ 3.44 µM)

Question: What about the MIC (Shigella flexneri [12]) of the same compound?
Answer: 1 µg/mL (≈ 3.44 µM)

Question: And the MIC (Salmonella)?
Answer: 1 µg/mL (≈ 3.44 µM)

Question: What about the MIC (Staphylococcus aureus [13]) of the same compound?
Answer: 1 µg/mL (≈ 3.44 µM)

Question: And the MIC (Klebsiella aerogenes [14])?
Answer: 1 µg/mL (≈ 3.44 µM)

Question: What about the MIC (Vibrio cholerae [15]) of the same compound?
Answer: 1 µg/mL (≈ 3.44 µM)

Question: Which results are given for `CC(C)(C)c1cc(Cc2cnc(N)nc2N)cc(C(C)(C)C)c1O`?
Answer: MIC ratio (Escherichia coli [1]): > 1000; MIC ratio (Klebsiella aerogenes [2]): > 1000; MIC ratio (Klebsiella pneumoniae [3]): > 1000; MIC (Neisseria gonorrhoeae): 35 µM (≈ 11.5 µg/mL); MIC ratio (Proteus vulgaris [4]): > 1000; MIC ratio (Shigella flexneri [6]): > 1000; MIC ratio (Staphylococcus aureus [5]): 30
